Experimental data published in patent US20020137929A1, “1 - (3-heterocyclylphenyl) isothiourea, -isourea, -guanidine and -amidine herbicidal agents” (Intellectual Property Department, BASF Aktiengesellschaft, priority 1998, published 2002).

Columns and labels:
MOOVA (Monochoria) = assay: Preemergence weed control under flooded paddy conditions; assay type: in vivo, Monochoria vaginalis; conditions: rated 3-4 weeks after treatment
How it was run: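 Seeds or propagules sown in silt loam kept flooded 1.5-3 cm; compounds in 50/50 acetone/water pipetted into flood water at about 0.0313 to 0.500 kg/ha. Greenhouse; visual 0-9 rating versus untreated control 3-4 weeks after treatment.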

[1] = test system: IPOHE (Morningglory, Ivyleaf); assay: Postemergence herbicidal evaluation; assay type: in vivo, Ipomoea hederacea
How it was run: (§1)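 Seedlings grown about two weeks were sprayed at 40 psi with compound dispersed in 50/50 acetone/water plus 0.5% TWEEN 20, at about 0.0156 to 0.500 kg/ha. Plants were kept in the greenhouse and scored 4–5 weeks later on a 0–9 visual scale against untreated controls.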

[2] = test system: ECHORC (Watergrass (Calif.)); assay: Preemergence weed control under flooded paddy conditions; assay type: in vivo, Echinochloa oryzoides; conditions: rated 3-4 weeks after treatment
How it was run: (§2)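 Visual injury scored 0-9 against control three to four weeks post-treatment, greenhouse-grown. Application: acetone/water (50/50) solutions dosed directly into flood water (1.5-3 cm over silt loam, planted top 0.5 cm), roughly 0.0313 to 0.500 kg/ha active ingredient.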

[3] = test system: TRZAWR (Wheat, Winter, cv Riband); assay: Postemergence herbicidal evaluation; assay type: in vivo, Triticum aestivum
How it was run: as §1

[4] = test system: IPOHE (Morningglory, Ivyleaf); assay: Preemergence herbicidal evaluation; assay type: in vivo, Ipomoea hederacea; conditions: rated 4-5 weeks after treatment
How it was run: (§3)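 Each species is sown separately in potting soil over roughly an inch of soil before any emergence. The soil surface then receives an aqueous acetone spray delivering about 0.0156 to 0.500 kg/ha of compound. After four to five weeks, injury is scored from 0 to 9 relative to a control.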

SETVI (Foxtail, Green) [5] = assay: Preemergence herbicidal evaluation; assay type: in vivo, Setaria viridis; conditions: rated 4-5 weeks after treatment
How it was run: as §3

[6] = test system: SAGPY (Arrowhead (Pygmaea)); assay: Postemergence weed control under flooded paddy conditions; assay type: in vivo, Sagittaria pygmaea; conditions: postemergence weeds, 3-4 weeks after treatment
How it was run: (§4)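 Flood-water application, about 0.0313–0.500 kg/ha a.i. in aqueous/acetone 50/50 v/v; water depth 1.5–3 cm throughout. Weeds 3–5 cm, rice 1.5–2.5 leaf. Greenhouse; 0–9 visual rating vs control at 3–4 wk.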

GALAP (Galium) = assay: Postemergence herbicidal evaluation; assay type: in vivo, Galium aparine
How it was run: as §1

SETVI (Foxtail, Green) [7] = assay: Postemergence herbicidal evaluation; assay type: in vivo, Setaria viridis
How it was run: as §1

ZEAMX (Corn, Field) = assay: Preemergence herbicidal evaluation; assay type: in vivo, Zea mays; conditions: rated 4-5 weeks after treatment
How it was run: as §3

ECHCG (Barnyardgrass) = assay: Preemergence herbicidal evaluation; assay type: in vivo, Echinochloa crus-galli; conditions: rated 4-5 weeks after treatment
How it was run: as §3

CYPIR (Rice Flatsedge) = assay: Preemergence weed control under flooded paddy conditions; assay type: in vivo, Cyperus iria; conditions: rated 3-4 weeks after treatment
How it was run: as §2

ABUTH (Velvetleaf) = assay: Preemergence herbicidal evaluation; assay type: in vivo, Abutilon theophrasti; conditions: rated 4-5 weeks after treatment
How it was run: as §3

[8] = test system: ECHORC (Watergrass (Calif.)); assay: Postemergence weed control under flooded paddy conditions; assay type: in vivo, Echinochloa oryzoides; conditions: postemergence weeds, 3-4 weeks after treatment
How it was run: as §4

SMILES: Cn1c(C(F)(F)F)cc(=O)n(-c2cc(N=C3NC(=O)CS3)c(Cl)cc2F)c1=O [Compound 39, 3-{4-Chloro-2-fluoro-5-[(4-oxo-2-thiazolidinylidene)amino]phenyl}-1-methyl-6-(trifluoromethyl)-2,4(1H,3H)-pyrimidinedione]
- Herbicidal rating MOOVA (MOOVA (Monochoria); 0.0313 kg/ha): 9.0
- Herbicidal rating MOOVA (MOOVA (Monochoria); 0.0625 kg/ha): 9.0
- Herbicidal rating MOOVA (MOOVA (Monochoria); 0.1250 kg/ha): 9.0
- Herbicidal rating MOOVA (MOOVA (Monochoria); 0.2500 kg/ha): 9.0
- Postemergence herbicidal rating IPOHE ([1]; Rate 0.0158 kg/ha): 2.0
- Postemergence herbicidal rating IPOHE ([1]; Rate 0.0315 kg/ha): 7.0
- Postemergence herbicidal rating IPOHE ([1]; Rate 0.0630 kg/ha): 7.0
- Herbicidal rating ECHORC ([2]; 0.0313 kg/ha): 0.0
- Herbicidal rating ECHORC ([2]; 0.0625 kg/ha): 0.0
- Herbicidal rating ECHORC ([2]; 0.1250 kg/ha): 2.0
- Herbicidal rating ECHORC ([2]; 0.2500 kg/ha): 3.0
- Postemergence herbicidal rating TRZAWR ([3]; Rate 0.0158 kg/ha): 2.0
- Postemergence herbicidal rating TRZAWR ([3]; Rate 0.0315 kg/ha): 1.5
- Postemergence herbicidal rating TRZAWR ([3]; Rate 0.0630 kg/ha): 2.5
- Preemergence herbicidal rating IPOHE ([4]; rate 0.0156 kg/ha): 0.0
- Preemergence herbicidal rating IPOHE ([4]; rate 0.0313 kg/ha): 0.0
- Preemergence herbicidal rating IPOHE ([4]; rate 0.0625 kg/ha): 1.0
- Preemergence herbicidal rating IPOHE ([4]; rate 0.1250 kg/ha): 1.0
- Preemergence herbicidal rating IPOHE ([4]; rate 0.2500 kg/ha): 9.0
- Preemergence herbicidal rating SETVI (SETVI (Foxtail, Green) [5]; rate 0.0156 kg/ha): 0.0
- Preemergence herbicidal rating SETVI (SETVI (Foxtail, Green) [5]; rate 0.0313 kg/ha): 0.0
- Preemergence herbicidal rating SETVI (SETVI (Foxtail, Green) [5]; rate 0.0625 kg/ha): 0.0
- Preemergence herbicidal rating SETVI (SETVI (Foxtail, Green) [5]; rate 0.1250 kg/ha): 0.0
- Preemergence herbicidal rating SETVI (SETVI (Foxtail, Green) [5]; rate 0.2500 kg/ha): 2.0
- Herbicidal rating SAGPY ([6]; rate 0.0313 kg/ha): 0.0
- Herbicidal rating SAGPY ([6]; rate 0.0625 kg/ha): 0.0
- Herbicidal rating SAGPY ([6]; rate 0.1250 kg/ha): 0.0
- Herbicidal rating SAGPY ([6]; rate 0.2500 kg/ha): 4.0
- Postemergence herbicidal rating GALAP (GALAP (Galium); Rate 0.0158 kg/ha): 0.0
- Postemergence herbicidal rating GALAP (GALAP (Galium); Rate 0.0315 kg/ha): 0.0
- Postemergence herbicidal rating GALAP (GALAP (Galium); Rate 0.0630 kg/ha): 0.0
- Postemergence herbicidal rating SETVI (SETVI (Foxtail, Green) [7]; Rate 0.0158 kg/ha): 0.0
- Postemergence herbicidal rating SETVI (SETVI (Foxtail, Green) [7]; Rate 0.0315 kg/ha): 0.0
- Postemergence herbicidal rating SETVI (SETVI (Foxtail, Green) [7]; Rate 0.0630 kg/ha): 0.0
- Preemergence herbicidal rating ZEAMX (ZEAMX (Corn, Field); rate 0.0156 kg/ha): 0.0
- Preemergence herbicidal rating ZEAMX (ZEAMX (Corn, Field); rate 0.0313 kg/ha): 0.0
- Preemergence herbicidal rating ZEAMX (ZEAMX (Corn, Field); rate 0.0625 kg/ha): 0.0
- Preemergence herbicidal rating ZEAMX (ZEAMX (Corn, Field); rate 0.1250 kg/ha): 2.0
- Preemergence herbicidal rating ZEAMX (ZEAMX (Corn, Field); rate 0.2500 kg/ha): 5.0
- Preemergence herbicidal rating ECHCG (ECHCG (Barnyardgrass); rate 0.0156 kg/ha): 0.0
- Preemergence herbicidal rating ECHCG (ECHCG (Barnyardgrass); rate 0.0313 kg/ha): 0.0
- Preemergence herbicidal rating ECHCG (ECHCG (Barnyardgrass); rate 0.0625 kg/ha): 0.0
- Preemergence herbicidal rating ECHCG (ECHCG (Barnyardgrass); rate 0.1250 kg/ha): 0.0
- Preemergence herbicidal rating ECHCG (ECHCG (Barnyardgrass); rate 0.2500 kg/ha): 0.0
- Herbicidal rating CYPIR (CYPIR (Rice Flatsedge); 0.0313 kg/ha): 0.0
- Herbicidal rating CYPIR (CYPIR (Rice Flatsedge); 0.0625 kg/ha): 0.0
- Herbicidal rating CYPIR (CYPIR (Rice Flatsedge); 0.1250 kg/ha): 0.0
- Herbicidal rating CYPIR (CYPIR (Rice Flatsedge); 0.2500 kg/ha): 0.0
- Preemergence herbicidal rating ABUTH (ABUTH (Velvetleaf); rate 0.0156 kg/ha): 0.0
- Preemergence herbicidal rating ABUTH (ABUTH (Velvetleaf); rate 0.0313 kg/ha): 0.0
- Preemergence herbicidal rating ABUTH (ABUTH (Velvetleaf); rate 0.0625 kg/ha): 1.0
- Preemergence herbicidal rating ABUTH (ABUTH (Velvetleaf); rate 0.1250 kg/ha): 9.0
- Preemergence herbicidal rating ABUTH (ABUTH (Velvetleaf); rate 0.2500 kg/ha): 9.0
- Herbicidal rating ECHORC ([8]; rate 0.0313 kg/ha): 0.0
- Herbicidal rating ECHORC ([8]; rate 0.0625 kg/ha): 0.0
- Herbicidal rating ECHORC ([8]; rate 0.1250 kg/ha): 2.0
- Herbicidal rating ECHORC ([8]; rate 0.2500 kg/ha): 3.0
